From patent publication US8318741B2, “Therapeutic compositions and methods” (The Texas A & M University System, priority 2005, dated 2012)
Like-named read-outs stand apart in the source and are kept apart here. Marks after values point to notes of the source that are not given here.

Key:
[1] = test system: carrageenin induced inflammation; assay: Carrageenin-induced inflammation (paw edema); type: in vivo, Sprague Dowley rats
Procedure: Forty female Sprague Dowley rats weighing 164±16 g were used for the experiments. The test and control groups were assigned randomly. Carrageenin (0.1 mL of 1% solution) was injected into the plantar surface of the rat hind paw to induce inflammation. Ten minutes before carrageenin injection, 8 mL of water administered ig. […] The changes in volume of the inflamed edematous foot were measured by the volume of water displaced and recorded at 0, 0.5, 1, 2, 4, and 6 h after the carrageenin injection.

[2] = test system: mice; assay: LD50 determination / acute oral toxicity; type: in vivo
Procedure: LD50 determination: For each dose, 20 mice of either sex, weighing 18-20 g were used to determined the LD50 according to the method of Litchfield & Wilcoxon, J. Pharmacol. Exp. Ther. 96:99-113 (1949). Animals were housed in an animal room at 25° C. and 70% relative humidity. The light cycle was set for 12 h light and 12 h darkness.

[3] = test system: trabeculectomy failure caused by inflammation; design: species or system Dutch Belted rabbits; settings: rabbit, in vivo
[4] = test system: choroidal neovascularization in rat eyes
[5] = test system: guinea pigs; settings: known before the Draize test; cited from earlier work
[6] = test system: rat eyes; assay: Retinal function recovery after ischemic insult in rat eyes (ERG b-wave); settings: 10 mg/kg ip; for Retinal Function Recovery After Ischemic Insult, Treated: Mean ± SD, N = 6; for Retinal Function Recovery, Net increase (%): treated versus control
[7] = test system: ocular hypertensive rabbit eyes; assay: Choroidal blood flow in ocular hypertensive rabbit eyes (colored microspheres); type: in vivo, New Zealand white rabbits; settings: for Choroidal Blood Flow, 30 min / Choroidal Blood Flow, 60 min / Choroidal Blood Flow, 120 min / Choroidal Blood Flow, 180 min / Time after administration over which the action on choroidal blood flow lasted: 50 μl, 1% topically; for Choroidal Blood Flow, 30 min / Choroidal Blood Flow, 60 min / Choroidal Blood Flow, 120 min / Choroidal Blood Flow, 180 min: vehicle controls at 100%, mean ± SD, N = 6
[8] = test system: IL-1 induced uveitis; assay: Interleukin-1 induced uveitis; type: in vivo, Sprague-Dawley rats; settings: 20 mg/kg t.i.d.
[9] = at various dose levels, AMD rat model
[10] = N-Nitropyrazoles and C-Nitropyrazoles, b-wave recovery after 30 min ischemia
[11] = N-Nitropyrazoles and C-Nitropyrazoles
[12] = N-nitro-azoles and C-nitropyrazoles, 30 min
[13] = N-nitro-azoles and C-nitropyrazoles
[14] = Flavonoids, 30 min after administration

CC1(Br)CSC(=Nc2ccccc2)N(c2ccccc2)C1=O (stereo not shown) [CK-17, 5-bromo-5-methyl-3-phenyl-2-phenylimino-1,3-thiazinan-4-one]
Potency relative to aspirin ([1]; carrageenin induced inflammation): about 10 times
Inhibition of carrageenin induced inflammation ([1]; ip 3 times before carrageenin): very effective in inhibiting carrageenin induced inflammation
Toxic response ([2]; 20 g/kg given orally, observed at least 7 days): did not cause any toxic response
LD50 equivalent for man ([2]; orally, extrapolated to man): ≥ 1,400 g/70 kg
Delay of trabeculectomy failure [3]: prolonged the appearance of trabeculectomy failure
Delay of trabeculectomy failure relative to prednisolone [3]: more effective than prednisolone
Effective dose to inhibit CNV formation ([4]; rat, in vivo, ip): 30 mg/kg
Skin irritation [5]: did not produce skin irritation

CC(C)(C)NC[C@@H](O)COc1nsnc1N1CCOCC1 [D-Timolol, (2R)-1-[(4-morpholin-4-yl-1,2,5-thiadiazol-3-yl)oxy]-3-(tert-butylamino)propan-2-ol]
Inhibition of CNV formation ([4]; 15 mg/kg i.p. once a day for 4 weeks): effective in inhibiting some CNV formation but not as potent as hydralazine or guanabenz
Inhibition of CNV formation [4, 9]: potent inhibition of CNV formation

CONC(=O)c1ccn([N+](=O)[O-])n1 [DN-6, N-methoxy-1-nitro-1H-pyrazole-3-carboxamide]
Retinal Function Recovery After Ischemic Insult, Treated [6, 10]: 64.0 ± 24.9 %
Retinal Function Recovery, Net increase (%) [6, 11]: 94.5%
Choroidal Blood Flow, 30 min [7, 12]: 56.9 ± 17.5^e %
Choroidal Blood Flow, 60 min [7, 13]: 61.8 ± 20.9 %
Choroidal Blood Flow, 120 min [7, 13]: 88.3 ± 34.1 %
Choroidal Blood Flow, 180 min [7, 13]: 128.5 ± 60.0 %

O=C(O)c1ccn([N+](=O)[O-])n1 [DN-7, 1-nitro-1H-pyrazole-3-carboxylic acid]
Retinal Function Recovery After Ischemic Insult, Treated [6, 10]: 71.4 ± 20.2 %
Retinal Function Recovery, Net increase (%) [6, 11]: 117.0%
Choroidal Blood Flow, 30 min [7, 12]: 42.0 ± 13.7%
Choroidal Blood Flow, 60 min [7, 13]: 57.2 ± 3.7 %
Choroidal Blood Flow, 120 min [7, 13]: 80.5 ± 23.1 %
Choroidal Blood Flow, 180 min [7, 13]: 87.3 ± 29.6 %

NC(N)=NN=Cc1c(Cl)cccc1Cl [Guanabenz, 2-[(2,6-dichlorophenyl)methylideneamino]guanidine]
Inhibition of CNV formation ([4]; 20 mg/kg i.p. once a day for 4 weeks, eight laser lesions): All eight CNV formations were inhibited
Inhibition of CNV formation ([4]; 20 mg/kg i.p. once a day for 4 weeks, eight laser lesions, listed as guanabenz): inhibition of CNV formation
Inhibition of CNV formation [4, 9]: potent inhibition of CNV formation

NNc1nncc2ccccc12 [Hydralazine, phthalazin-1-ylhydrazine]
Inhibition of CNV formation ([4]; 5 mg/kg i.p. once a day for 4 weeks, eight laser lesions): four out of eight
Inhibition of CNV formation ([4]; 10 mg/kg i.p., eight laser lesions): inhibited all CNV formation effectively
Inhibition of CNV formation ([4]; 10 mg/kg i.p., eight laser lesions, listed as hydralazine): inhibition of CNV formation
Inhibition of CNV formation [4, 9]: potent inhibition of CNV formation

O=C1CC(c2ccc(O)cc2)Oc2cc(O)cc(O)c21 (stereo not shown) [Naringenin, 5,7-dihydroxy-2-(4-hydroxyphenyl)chroman-4-one]
Inhibition of CNV formation ([4]; 30 mg/kg i.p., eight laser lesions): marked inhibition of CNV formation
Inhibition of CNV formation [4, 9]: potent inhibition of CNV formation
Retinal Function Recovery After Ischemic Insult, Treated ([6]; Flavonoids, b-wave recovery relative to original level after 30 min ischemia): 54.0 ± 17.8 %
Retinal Function Recovery, Net increase (%) ([6]; Flavonoids): 66.1%
Time after administration over which the action on choroidal blood flow lasted [7]: at least 2 hrs
Choroidal Blood Flow, 30 min [7, 14]: 102.5 ± 22.0^e* %
Choroidal Blood Flow, 60 min ([7]; Flavonoids): 226.1 ± 55.0 %
Choroidal Blood Flow, 120 min ([7]; Flavonoids): 124.2 ± 74.5 %
Choroidal Blood Flow, 180 min ([7]; Flavonoids): 137.4 ± 712%
Onset / latent period of the increase of choroidal blood flow ([7]; after drug administration): 30 min
Time of peak effect on choroidal blood flow ([7]; after drug administration): 60 min
Increase of choroidal blood flow at the peak, of the original blood flow ([7]; at the peak (60 min after drug administration)): more than 200%

O=c1c(-c2ccc(O)cc2)coc2c([C@@H]3O[C@H](CO)[C@@H](O)[C@H](O)[C@H]3O)c(O)ccc12 [Puerarin]
Retinal Function Recovery After Ischemic Insult, Treated ([6]; Flavonoids, b-wave recovery relative to original level after 30 min ischemia, 10 mg/kg): 90.0 ± 17.2 %
Retinal Function Recovery After Ischemic Insult, Treated ([6]; Flavonoids, b-wave recovery relative to original level after 30 min ischemia, listed as puerarin, 10 mg/kg): 90%
Retinal Function Recovery, Net increase (%) ([6]; Flavonoids): 190.3%
Time after administration over which the action on choroidal blood flow lasted [7]: > 3 h
Choroidal Blood Flow, 30 min [7, 14]: 30.9 ± 7.7%
Choroidal Blood Flow, 60 min ([7]; Flavonoids): 114.9 ± 21.5 %
Choroidal Blood Flow, 120 min ([7]; Flavonoids): 160.8 ± 70.7 %
Choroidal Blood Flow, 180 min ([7]; Flavonoids): 127.4 ± 65.5 %
Start of action on choroidal blood flow ([7]; after administration): 1 h

C[C@]12C=CC(=O)C=C1CC[C@@H]1[C@@H]2[C@@H](O)C[C@@]2(C)[C@H]1CC[C@]2(O)C(=O)CO [prednisolone]
Minimal dose required to produce inhibition of CNV formation ([4]; i.p.): 3 mg/kg
Blockade of IL-1 induced uveitis [8]: blocked effectively
